The source made the active and inactive calls. For most assays here, no stated cut-off is given here; in the data, actives have a measured EC50 and inactives only a lower limit.
Key:
cells [1] = type: functional, cell-based
cells [2] = type: functional, cell-based; remark: listed apart in the source
[3] = target: T1, Short transient receptor potential channel 4 (Mus musculus, UniProt Q9QUQ5); assay: block of DAMGO-driven TRPC4 calcium entry – cell-based, HEK293 TRPC4/mu-opioid, Fluo-4 calcium, dose response (AID 434942); type: functional;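 further: potency of inhibitors blocking the TRPC4 calcium response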
T1 sequence (Q9QUQ5 whole entry): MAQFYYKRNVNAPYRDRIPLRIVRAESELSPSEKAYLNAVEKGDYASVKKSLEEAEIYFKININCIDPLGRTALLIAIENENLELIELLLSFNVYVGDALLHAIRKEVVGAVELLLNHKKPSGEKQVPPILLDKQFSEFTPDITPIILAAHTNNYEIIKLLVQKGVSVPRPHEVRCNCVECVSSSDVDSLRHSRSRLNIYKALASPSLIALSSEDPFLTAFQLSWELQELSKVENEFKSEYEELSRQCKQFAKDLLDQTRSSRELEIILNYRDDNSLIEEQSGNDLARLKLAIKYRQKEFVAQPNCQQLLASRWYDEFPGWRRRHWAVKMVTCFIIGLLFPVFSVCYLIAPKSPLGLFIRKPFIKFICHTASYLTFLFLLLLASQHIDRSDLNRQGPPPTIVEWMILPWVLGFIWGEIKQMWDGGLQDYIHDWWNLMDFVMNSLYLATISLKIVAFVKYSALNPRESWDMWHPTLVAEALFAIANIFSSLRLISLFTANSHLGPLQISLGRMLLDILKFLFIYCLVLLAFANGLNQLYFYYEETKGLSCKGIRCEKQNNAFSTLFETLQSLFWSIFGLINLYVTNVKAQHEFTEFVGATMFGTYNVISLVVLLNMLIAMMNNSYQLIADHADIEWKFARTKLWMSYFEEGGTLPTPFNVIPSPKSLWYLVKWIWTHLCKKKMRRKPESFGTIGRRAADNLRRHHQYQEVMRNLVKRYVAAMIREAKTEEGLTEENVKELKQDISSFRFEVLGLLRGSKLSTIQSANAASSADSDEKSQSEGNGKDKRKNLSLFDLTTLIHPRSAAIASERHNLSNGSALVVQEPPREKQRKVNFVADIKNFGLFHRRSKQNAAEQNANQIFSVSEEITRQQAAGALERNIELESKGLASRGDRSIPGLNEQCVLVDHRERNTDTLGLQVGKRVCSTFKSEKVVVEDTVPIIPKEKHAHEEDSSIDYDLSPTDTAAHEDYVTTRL

cells [4] = type: functional
[5] = target: T2, Corticotropin-releasing factor receptor 2/Corticotropin-releasing factor-binding protein (Homo sapiens, UniProt P24387+Q13324); assay: activators of CRF receptor 2 with binding protein – uHTS hits, confirmation (AID 602473); type: functional; conditions: read-out: EC50_Mean
T2 sequence (Q13324 whole entry): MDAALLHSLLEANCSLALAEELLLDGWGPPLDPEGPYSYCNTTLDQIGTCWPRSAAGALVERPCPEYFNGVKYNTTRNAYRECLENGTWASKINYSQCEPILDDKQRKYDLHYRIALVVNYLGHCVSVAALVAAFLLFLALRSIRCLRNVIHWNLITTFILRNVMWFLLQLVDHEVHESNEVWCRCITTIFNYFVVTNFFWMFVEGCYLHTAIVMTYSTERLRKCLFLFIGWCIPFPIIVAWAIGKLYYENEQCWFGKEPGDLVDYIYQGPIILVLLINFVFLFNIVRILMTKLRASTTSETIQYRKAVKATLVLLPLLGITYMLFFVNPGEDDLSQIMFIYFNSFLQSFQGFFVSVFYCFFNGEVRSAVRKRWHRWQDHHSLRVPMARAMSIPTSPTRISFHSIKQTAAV
T2 sequence (P24387 whole entry): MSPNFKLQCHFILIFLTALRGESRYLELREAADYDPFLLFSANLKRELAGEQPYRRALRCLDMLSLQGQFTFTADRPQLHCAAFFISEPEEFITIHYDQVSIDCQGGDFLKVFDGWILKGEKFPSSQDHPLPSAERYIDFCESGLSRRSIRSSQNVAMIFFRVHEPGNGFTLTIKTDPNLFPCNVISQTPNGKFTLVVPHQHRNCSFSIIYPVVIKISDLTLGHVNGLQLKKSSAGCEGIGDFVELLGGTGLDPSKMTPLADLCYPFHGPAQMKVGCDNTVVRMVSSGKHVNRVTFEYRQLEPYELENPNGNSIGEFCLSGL

[6] = alpha-synuclein stem-loop luciferase translation blockers – H4 neuroglioma cells, luminescence, confirmation (AID 1988); type: functional, cell-based
[7] = luciferase reporter signal suppression in cells – H4 neuroglioma cells, luminescence, dose response (AID 1990); type: functional, cell-based
[8] = target: T2, Corticotropin-releasing factor receptor 2/Corticotropin-releasing factor-binding protein; assay: Dose Response confirmation of uHTS hits for small molecule antagonists of the CRF-binding protein and CRF-R2 receptor complex.; type: functional; conditions: read-out: IC50_Mean
[9] = Luminescence Cell-Based Dose Response HTS to Identify Inhibitors of 5'UTR Stem-Loop Driven Prion Protein mRNA Translation in H4 Neuroglioblastoma Cells. [Related pubchem assays: 1827 (Project Summary), 1813 (Primary HTS)]; type: functional
[10] = system: Streptococcus sp. 'group A'; assay: Streptococcus pyogenes SK(-)GAS viability under kanamycin – luminescence, BacTiterGlo, confirmation, counter-screen for streptokinase expression inhibitor project, dose response (AID 1900); type: functional, organism-based
Streptococcus = assay: GAS UMAA2166 growth inhibition – luminescence, BacTiterGlo, counter-screen for streptokinase expression inhibitor project, dose response (AID 1915); type: functional, organism-based;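 further: potency for reduction of bacterial viability or growth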
[11] = viability of PTEN-deleted HCT116 cells – cell-based, HCT116 PTEN knockout, dose response (AID 1047); type: functional;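 further: HCT116 colon tumor cells with PTEN knocked out; cells exposed to compound for 60 hours before readout; potency for loss of cell viability measured by luminescence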
[12] = viability of HCT116 lacking mutant beta-catenin – cell-based, human colon tumor, dose response (AID 1045); type: functional;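 further: HCT116 colon tumor cells with beta catenin knocked out; cells exposed to compound for 60 hours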
[13] = Luminescence Cell-Based Dose Retest to Confirm Inhibitors of Cancer Stem Cells. [Related pubchem assays (depositor defined):AID2717, AID2721]; type: functional; conditions: Homo sapiens
[14] = microbe, parasite or virus in culture; type: functional; conditions: Mycobacterium tuberculosis
Streptokinase A = target: T3, Streptokinase A (Streptococcus pyogenes serotype M1, UniProt P10520); assay: viability-normalized secreted streptokinase activity reduction – plasminogen activation absorbance, OD405, dose response (AID 1914); type: functional, Streptococcus pyogenes M1 GAS;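 further: secreted streptokinase activity via plasminogen activation per viability signal from cell pellet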
T3 sequence (P10520 whole entry): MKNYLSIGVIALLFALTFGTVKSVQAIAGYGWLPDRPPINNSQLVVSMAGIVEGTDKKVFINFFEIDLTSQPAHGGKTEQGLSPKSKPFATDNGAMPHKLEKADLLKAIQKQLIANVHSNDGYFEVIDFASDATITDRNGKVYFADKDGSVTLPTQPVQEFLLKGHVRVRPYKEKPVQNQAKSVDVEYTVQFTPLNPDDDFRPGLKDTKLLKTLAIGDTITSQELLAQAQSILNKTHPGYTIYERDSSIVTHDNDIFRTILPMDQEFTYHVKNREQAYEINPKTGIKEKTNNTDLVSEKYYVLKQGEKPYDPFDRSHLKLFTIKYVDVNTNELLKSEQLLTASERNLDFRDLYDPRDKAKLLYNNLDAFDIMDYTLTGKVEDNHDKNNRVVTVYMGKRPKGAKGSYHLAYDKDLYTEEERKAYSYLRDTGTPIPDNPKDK

[15] = target: T4, Heat shock factor protein 1 (Mus musculus, UniProt P38532); assay: decrease of HSF1-responsive luciferase luminescence – cell-based, NIH3T3, dose retest, confirmation (AID 2382); type: functional;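 further: NIH3T3 fibroblasts with HSF1-driven luciferase reporter stressed by proteasome inhibitor MG132; luminescence from HSF1-driven luciferase expression after 8 hours of MG132 stress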
T4 sequence (P38532 whole entry): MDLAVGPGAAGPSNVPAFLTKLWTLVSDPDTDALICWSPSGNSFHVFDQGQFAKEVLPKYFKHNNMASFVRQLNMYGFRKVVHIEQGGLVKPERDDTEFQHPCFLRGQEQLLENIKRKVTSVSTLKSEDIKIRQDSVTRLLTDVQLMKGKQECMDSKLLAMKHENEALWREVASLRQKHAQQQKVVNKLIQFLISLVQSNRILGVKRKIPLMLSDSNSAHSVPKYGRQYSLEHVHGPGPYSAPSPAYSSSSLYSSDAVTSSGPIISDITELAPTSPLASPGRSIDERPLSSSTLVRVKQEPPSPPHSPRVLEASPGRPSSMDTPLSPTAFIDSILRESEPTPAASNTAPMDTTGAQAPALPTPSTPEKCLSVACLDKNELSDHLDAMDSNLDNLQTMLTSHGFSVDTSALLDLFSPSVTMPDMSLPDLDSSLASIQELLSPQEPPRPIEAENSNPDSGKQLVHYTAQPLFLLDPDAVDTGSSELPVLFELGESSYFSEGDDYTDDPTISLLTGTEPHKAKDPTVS

[16] = Trypanosoma cruzi growth suppression in host cells – NIH3T3 host cells, beta-gal luminescence, confirmation (AID 2044); type: functional, cell-based;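 further: intracellular parasites grown in NIH/3T3 mouse fibroblasts as host cells; luminescent beta-galactosidase reporter signal from transgenic T. cruzi replicating inside host cells; inhibitors lower the luminescence signal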
[17] = NIH-3T3 fibroblast cytotoxicity, dose response, cytotoxicity control, cell-based, fluorescence, Alamar Blue, secondary assay (AID 2327); type: functional;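 further: NIH-3T3 mouse fibroblasts cultured with fluconazole at 8 µg/mL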
[18] = fluconazole-exposed Candida albicans growth modulators – fluorescence, retest, confirmation (AID 2467); type: functional, cell-based
[19] = NIH3T3 cell viability loss – ATP luminescence, mouse fibroblasts, counter-screen, dose response (AID 2010); type: functional, cell-based;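 further: cells exposed to compound for about 90 hours before reading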
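Wherever AC50 is given: cells exposed to compound for roughly 70 hours or longer before luminescence read.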

## O=C(NC1CCCC1)c1cc(-c2cccs2)on1
Cells [1]
  EC50: 52.2 µM (active)
Cells [2]
  EC50: 108 µM (active)

## Cn1nnnc1SCCNCc1ccccc1OCc1ccc(Cl)cc1
[3]
  EC50: 1.33 µM (active)

## C=CCOc1ccc(Br)cc1CNC(C)(C)CO
[3]
  EC50: 3.76 µM (active)

## Cc1ccc2c(c1)N(C(=O)CCC(=O)Nc1ccccc1Br)CC(C)O2 (stereo not given)
[3]
  EC50: 1.68 µM (active)

## O=C(OCCCOC(=O)c1ccc([N+](=O)[O-])o1)c1ccc([N+](=O)[O-])o1
Cells [4]
  IC50: < 0.1 µM (active)

## Cc1[nH]n(S(=O)(=O)Cc2ccccc2)c(=O)c1N=Nc1ccccc1Cl
Cells [4]
  IC50: 8.42 µM (active)

## CCN(CC)CCOC(=O)C(Cc1ccco1)Cc1cccc2ccccc12 (stereo not given)
[5]
  EC50: > 53 µM (inactive)
[6]
  EC50: > 120 µM (not active)
[7]
  EC50: > 120 µM (not active)
[8]
  IC50: > 47.1 µM (inactive)
[9]
  EC50: > 120 µM (not active)
Cells [1]
  EC50: > 350 µM (not active)
Cells [2]
  EC50: > 350 µM (not active)

## Cc1cc(Br)c(NC(=O)CN(C)CCOc2ccccc2)c(Br)c1
[3]
  EC50: 5.96 µM (active)

## CCc1ccc(NC(=O)C(=O)NNC(=O)COc2cccc(OC)c2)cc1
Cells [4]
  IC50: 5.58 µM (active)

## O=[N+]([O-])c1cccc(/C=C/c2ccc3cccc(O)c3n2)c1
[10]
  EC50: 3.36 µM (active)
Streptococcus
  EC50: 7.37 µM (active)
Cells [1]
  EC50: 7.51 µM (active)
Cells [2]
  EC50: > 350 µM (not active)

## COc1cccc(C2C3=C(N=c4s/c(=C\c5cccc(O)c5)c(=O)n42)c2ccccc2CC3)c1OC (stereo not given)
[11]
  EC50: 13.9 µM (active)
[12]
  EC50: 15.3 µM (active)
[13]
  AC50: 4.06 µM (active)
[14]
  CC50: 32.5 µM (active)
[10]
  EC50: 20.8 µM (active)
Streptococcus
  EC50: > 150 µM (not active)
Streptokinase A
  EC50: 6.31 µM (active)

## COc1ccc(O)c(C(=O)c2cnc3c(c2)c(=O)[nH]c(=O)n3C)c1
[3]
  EC50: 1.5 µM (active)

## Cc1cccc(NC(=O)C2CC(=O)N=C(Nc3nc4ccccc4s3)N2)c1 (stereo not given)
Cells [1]
  EC50: > 350 µM (not active)
Cells [2]
  EC50: > 350 µM (not active)

## Cc1ncsc1CCOC(=O)C12CC3CC(CC(C3)C1)C2
[3]
  EC50: 5.31 µM (active)

## CCOC(=O)C1(CCOc2ccccc2)CCN(Cc2cccc(-n3cccn3)c2)CC1
[15]
  EC50: > 195 µM (not active)
[14]
  CC50: > 40 µM (active)

## O=C(OCCCCN1C(=O)c2ccccc2C1=O)c1ccc(Br)o1
Cells [4]
  IC50: 46.8 µM (active)

## Cc1cc(SCC(=O)N/N=C/c2ccc(O)cc2O)c(C)cc1Br
[16]
  EC50: 0.687 µM (active)
[17]
  EC50: > 160 µM (inactive)
[6]
  EC50: 5.74 µM (active)
[7]
  EC50: 5.85 µM (active)
[18]
  EC50: 3.06 µM (active)
[13]
  AC50: 4.49 µM (active)
[9]
  EC50: 9.19 µM (active)
[10]
  EC50: 2.46 µM (active)
Streptococcus
  EC50: 2.57 µM (active)
Cells [1]
  EC50: > 350 µM (not active)
Cells [2]
  EC50: 13.4 µM (active)
[19]
  EC50: > 60 µM (inconclusive)

## Cc1cc(OCc2cc(C(=O)NCC3(C)COC3)no2)cc(C)c1Cl
[3]
  EC50: 2.37 µM (active)

## CCOc1cc(CNCc2cccs2)ccc1OCC(=O)NC(C)(C)C
[3]
  EC50: 2.11 µM (active)

## C#CCSc1nnc(-c2ccc([N+](=O)[O-])cc2)o1
Cells [4]
  IC50: 9.4 µM (active)

## COc1ccc(-n2c(C)csc2=S)cc1
Cells [1]
  EC50: > 350 µM (not active)
Cells [2]
  EC50: > 350 µM (not active)

## CN1/C(=C\C(=O)COC(=O)C2COc3ccccc3O2)C(C)(C)c2ccccc21 (stereo not given)
Cells [4]
  IC50: 48.2 µM (active)

## O=C(Nc1nc2ccccc2n1CCN1CCCC1)c1ccc(Cl)cc1
Cells [4]
  IC50: 25.4 µM (active)

## CC(C)Cc1nnc(NC(=O)CCC(=O)N2CCC3(CC2)OCCO3)s1
Cells [1]
  EC50: > 350 µM (not active)
Cells [2]
  EC50: > 350 µM (not active)

From ChEMBL document CHEMBL1201862, “PubChem BioAssay data set” (2004)
